Experiments:
[1] = biological target: T1, Human melanin-concentrating hormone (MCH1) (Homo sapiens, UniProt Q99705); assay: Radioligand binding, human melanin-concentrating hormone MCH1 membranes, FlashPlate, [125I]-S36057; settings: compound at 10 μM; for A6: inhibition of radioligand binding, human melanin-concentrating hormone (MCH1): [125I]-S36057
T1 construct: purchased Perkin Elmer Biosignal
In short: (§1)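 Cloned human receptor membranes were coated onto FlashPlate wells and incubated with radioligand and compound (added from a 0.5 mM DMSO daughter plate) for 1 hour at room temperature in the dark. Scintillation counting gave percent inhibition, with DMSO defining total and reference ligand defining non-specific binding.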

Human neurokinin (NK1) = biological target: T2, Human neurokinin (NK1) (Homo sapiens, UniProt P25103); assay: Radioligand binding, human neurokinin NK1 membranes, filtration, [125I]-Substance P; settings: compound at 10 μM, [125I]-Substance P
T2 construct: purchased Perkin Elmer Biosignal
In short: (§2)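 Membranes from cloned human receptors were incubated with compound and radioligand for 1 hour at room temperature. Bound ligand was collected on 0.3% PEI-soaked filters, washed with cold 50 mM Tris-HCl pH 7.4, and counted by scintillation. Percent inhibition was computed against DMSO totals and reference-ligand nonspecific wells.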

Human κ-Opioid (KOP) = biological target: T3, Human κ-Opioid (KOP) (Homo sapiens, UniProt P41145); assay: Radioligand binding, human κ-opioid (KOP) membranes, filtration, [3H]-Diprenorphine; settings: compound at 10 μM, [3H]-Diprenorphine
T3 construct: purchased Perkin Elmer Biosignal
In short: as §2

Mouse urotensin (mUR2) = biological target: T4, Mouse urotensin (mUR2) (Mus musculus, UniProt Q8VIH9); assay: Radioligand binding, mouse urotensin mUR2 membranes, FlashPlate, [125I]-Urotensin II; settings: compound at 10 μM, [125I]-Urotensin II
T4 construct: purchased Perkin Elmer Biosignal
T4 sequence (Q8VIH9 1-385): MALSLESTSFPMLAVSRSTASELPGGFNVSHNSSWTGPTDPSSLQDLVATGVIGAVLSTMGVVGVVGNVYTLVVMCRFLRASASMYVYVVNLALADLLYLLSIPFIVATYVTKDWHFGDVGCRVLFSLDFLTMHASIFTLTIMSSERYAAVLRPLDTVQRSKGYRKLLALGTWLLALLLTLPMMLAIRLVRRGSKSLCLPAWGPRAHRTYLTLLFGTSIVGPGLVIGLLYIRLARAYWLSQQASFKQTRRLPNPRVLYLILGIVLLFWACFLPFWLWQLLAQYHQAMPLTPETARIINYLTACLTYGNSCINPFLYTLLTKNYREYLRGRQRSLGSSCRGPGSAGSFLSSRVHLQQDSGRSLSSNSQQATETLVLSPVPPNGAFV
In short: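 Cloned mouse urotensin (mUR2) receptor membranes from Perkin Elmer Biosignal were immobilized in FlashPlate microplates using a proprietary coating. Each well got 19.5 μl buffer, then 0.5 μl of DMSO, reference ligand, or compound. Adding 5 μl of [125I]-Urotensin II, diluted to 5× final concentration in binding buffer, started binding. Plates were sealed with TopSeal-A and incubated 1 hour at room temperature in the dark. Wells were counted for 30 seconds each on a TopCount after a 60-second delay, and percentage inhibition was calculated.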

Human Melanocortin (MC4) = biological target: T5, Human Melanocortin (MC4) (Homo sapiens, UniProt P32245); assay: Radioligand binding, human melanocortin MC4 membranes, FlashPlate, [125I]-NDP-αMSH; settings: compound at 10 μM, [125I]-NDP-αMSH
T5 construct: purchased Perkin Elmer Biosignal
In short: as §1

Human melanocortin (MC5) = biological target: T6, Human melanocortin (MC5) (Homo sapiens, UniProt P33032); assay: Radioligand binding, human melanocortin MC5 membranes, FlashPlate, [125I]-NDP-αMSH; settings: compound at 10 μM, [125I]-NDP-αMSH
T6 construct: purchased Perkin Elmer Biosignal
In short: as §1

Human Melanocortin (MC3) = biological target: T7, Human Melanocortin (MC3) (Homo sapiens, UniProt P41968); assay: Radioligand binding, human melanocortin MC3 membranes, FlashPlate, [125I]-NDP-αMSH; settings: compound at 10 μM, [125I]-NDP-αMSH
T7 construct: purchased Perkin Elmer Biosignal
In short: as §1

Human opioid (ORL1) = biological target: T8, Human opioid (ORL1) (Homo sapiens, UniProt P41146); assay: Radioligand binding, human opioid ORL1 membranes, FlashPlate, [125I]-Nociceptin; settings: compound at 10 μM, [125I]-Nociceptin
T8 construct: purchased Perkin Elmer Biosignal
In short: as §1

Human μ-opioid (MOP) = biological target: T9, Human μ-opioid (MOP) (Homo sapiens, UniProt P35372); assay: Radioligand binding, human μ-opioid (MOP) membranes, FlashPlate, [3H]-Naloxone; settings: compound at 10 μM, [3H]-Naloxone
T9 construct: purchased Perkin Elmer Biosignal
In short: as §1

Human δ-opioid (DOP) = biological target: T10, Human δ-opioid (DOP) (Homo sapiens, UniProt P41143); assay: Radioligand binding, human δ-opioid (DOP) membranes, FlashPlate, [3H]-Bremazocine; settings: compound at 10 μM, [3H]-Bremazocine
T10 construct: purchased Perkin Elmer Biosignal
In short: as §1

[2] = biological target: T11, Human neuropeptide Y (NPY-Y1) (Homo sapiens, UniProt P25929); assay: Radioligand binding, human neuropeptide Y NPY-Y1 membranes, FlashPlate, [125I]-PYY; settings: compound at 10 μM, [125I]-PYY
T11 construct: purchased Perkin Elmer Biosignal
T11 sequence (P25929 1-384): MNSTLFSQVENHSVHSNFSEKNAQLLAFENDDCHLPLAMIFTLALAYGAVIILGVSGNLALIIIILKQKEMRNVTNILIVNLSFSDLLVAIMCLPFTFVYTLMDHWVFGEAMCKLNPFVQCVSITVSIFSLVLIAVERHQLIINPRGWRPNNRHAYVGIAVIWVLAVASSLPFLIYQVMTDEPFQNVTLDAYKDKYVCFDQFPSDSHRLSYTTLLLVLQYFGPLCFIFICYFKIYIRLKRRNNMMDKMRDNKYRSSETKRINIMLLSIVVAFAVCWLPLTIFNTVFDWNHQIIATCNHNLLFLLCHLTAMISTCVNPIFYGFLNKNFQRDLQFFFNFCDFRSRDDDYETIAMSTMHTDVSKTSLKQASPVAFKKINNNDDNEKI
In short: as §1

T9 sequence (P35372 whole entry): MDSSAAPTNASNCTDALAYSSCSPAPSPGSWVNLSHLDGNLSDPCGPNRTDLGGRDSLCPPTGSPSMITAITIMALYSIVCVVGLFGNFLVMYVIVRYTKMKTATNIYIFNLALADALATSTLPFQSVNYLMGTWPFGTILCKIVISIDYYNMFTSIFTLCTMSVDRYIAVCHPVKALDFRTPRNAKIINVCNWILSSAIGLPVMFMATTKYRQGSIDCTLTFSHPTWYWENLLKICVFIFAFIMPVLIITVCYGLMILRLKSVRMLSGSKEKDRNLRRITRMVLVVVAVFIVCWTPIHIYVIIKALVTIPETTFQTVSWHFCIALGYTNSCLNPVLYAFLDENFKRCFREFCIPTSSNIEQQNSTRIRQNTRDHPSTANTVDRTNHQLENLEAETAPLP
T6 sequence (P33032 whole entry): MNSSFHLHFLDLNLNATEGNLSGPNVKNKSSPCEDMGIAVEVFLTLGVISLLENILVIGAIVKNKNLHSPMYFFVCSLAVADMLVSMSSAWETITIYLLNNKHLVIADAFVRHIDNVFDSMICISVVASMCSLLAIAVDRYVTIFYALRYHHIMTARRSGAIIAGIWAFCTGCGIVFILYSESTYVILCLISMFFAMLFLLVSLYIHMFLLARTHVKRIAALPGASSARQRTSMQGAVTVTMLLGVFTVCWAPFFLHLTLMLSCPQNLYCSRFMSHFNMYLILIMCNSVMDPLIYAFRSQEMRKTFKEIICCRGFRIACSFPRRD
T2 sequence (P25103 whole entry): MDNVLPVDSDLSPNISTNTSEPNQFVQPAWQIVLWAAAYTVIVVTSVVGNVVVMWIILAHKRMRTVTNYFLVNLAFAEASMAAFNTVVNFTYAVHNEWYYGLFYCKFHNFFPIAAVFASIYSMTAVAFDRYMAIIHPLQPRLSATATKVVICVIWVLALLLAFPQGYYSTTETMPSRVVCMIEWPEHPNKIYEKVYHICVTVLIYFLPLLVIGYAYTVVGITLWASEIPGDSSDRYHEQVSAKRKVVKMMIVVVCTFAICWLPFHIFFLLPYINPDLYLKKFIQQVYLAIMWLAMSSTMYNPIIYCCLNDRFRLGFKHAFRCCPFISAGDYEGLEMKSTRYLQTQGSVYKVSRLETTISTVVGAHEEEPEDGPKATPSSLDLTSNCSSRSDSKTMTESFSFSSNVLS
T7 sequence (P41968 whole entry): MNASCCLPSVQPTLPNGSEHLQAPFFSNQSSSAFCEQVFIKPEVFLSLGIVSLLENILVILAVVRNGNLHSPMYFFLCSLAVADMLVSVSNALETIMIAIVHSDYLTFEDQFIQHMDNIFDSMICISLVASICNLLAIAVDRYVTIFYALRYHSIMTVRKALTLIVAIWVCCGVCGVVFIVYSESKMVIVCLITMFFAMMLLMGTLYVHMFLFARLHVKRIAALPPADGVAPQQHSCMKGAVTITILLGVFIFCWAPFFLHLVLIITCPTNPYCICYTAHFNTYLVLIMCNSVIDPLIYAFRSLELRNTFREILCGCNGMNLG
T10 sequence (P41143 whole entry): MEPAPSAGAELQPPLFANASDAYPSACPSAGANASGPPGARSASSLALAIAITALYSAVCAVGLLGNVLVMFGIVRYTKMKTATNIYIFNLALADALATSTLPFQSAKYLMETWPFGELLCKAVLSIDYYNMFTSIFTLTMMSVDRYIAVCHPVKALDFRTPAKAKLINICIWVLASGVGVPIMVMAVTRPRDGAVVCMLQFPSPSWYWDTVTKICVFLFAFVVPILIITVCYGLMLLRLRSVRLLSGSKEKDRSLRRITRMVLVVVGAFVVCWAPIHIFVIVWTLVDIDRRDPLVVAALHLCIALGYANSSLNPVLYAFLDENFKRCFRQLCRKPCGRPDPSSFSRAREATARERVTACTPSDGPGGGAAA
T8 sequence (P41146 whole entry): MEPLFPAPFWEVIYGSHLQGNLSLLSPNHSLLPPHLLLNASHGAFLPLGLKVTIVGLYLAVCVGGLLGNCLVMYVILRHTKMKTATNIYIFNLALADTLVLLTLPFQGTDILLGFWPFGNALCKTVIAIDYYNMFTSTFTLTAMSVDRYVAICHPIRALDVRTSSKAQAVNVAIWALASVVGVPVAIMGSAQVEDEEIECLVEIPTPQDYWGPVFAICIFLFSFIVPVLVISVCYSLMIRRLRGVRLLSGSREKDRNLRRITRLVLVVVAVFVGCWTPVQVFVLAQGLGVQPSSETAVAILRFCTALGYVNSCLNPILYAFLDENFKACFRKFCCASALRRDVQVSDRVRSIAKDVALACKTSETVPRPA
T3 sequence (P41145 whole entry): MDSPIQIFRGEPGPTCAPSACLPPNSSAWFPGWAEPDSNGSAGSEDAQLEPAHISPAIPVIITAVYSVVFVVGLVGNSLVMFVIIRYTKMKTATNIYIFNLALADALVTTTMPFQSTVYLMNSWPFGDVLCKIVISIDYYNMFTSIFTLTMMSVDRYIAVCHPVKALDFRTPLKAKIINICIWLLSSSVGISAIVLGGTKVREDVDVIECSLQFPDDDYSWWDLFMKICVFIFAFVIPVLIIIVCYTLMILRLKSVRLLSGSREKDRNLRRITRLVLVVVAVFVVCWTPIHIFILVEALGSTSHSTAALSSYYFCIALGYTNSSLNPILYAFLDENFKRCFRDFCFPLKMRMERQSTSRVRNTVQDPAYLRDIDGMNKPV
T5 sequence (P32245 whole entry): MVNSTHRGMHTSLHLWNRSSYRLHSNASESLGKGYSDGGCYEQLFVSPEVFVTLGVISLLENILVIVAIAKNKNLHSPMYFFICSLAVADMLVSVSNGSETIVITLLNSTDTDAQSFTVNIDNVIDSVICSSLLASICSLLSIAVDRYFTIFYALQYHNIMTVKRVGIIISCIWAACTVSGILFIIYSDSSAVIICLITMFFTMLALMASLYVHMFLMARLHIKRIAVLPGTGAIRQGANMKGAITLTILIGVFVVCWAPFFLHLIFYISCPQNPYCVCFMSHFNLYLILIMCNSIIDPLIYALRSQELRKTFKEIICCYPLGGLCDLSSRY
T1 sequence (Q99705 whole entry): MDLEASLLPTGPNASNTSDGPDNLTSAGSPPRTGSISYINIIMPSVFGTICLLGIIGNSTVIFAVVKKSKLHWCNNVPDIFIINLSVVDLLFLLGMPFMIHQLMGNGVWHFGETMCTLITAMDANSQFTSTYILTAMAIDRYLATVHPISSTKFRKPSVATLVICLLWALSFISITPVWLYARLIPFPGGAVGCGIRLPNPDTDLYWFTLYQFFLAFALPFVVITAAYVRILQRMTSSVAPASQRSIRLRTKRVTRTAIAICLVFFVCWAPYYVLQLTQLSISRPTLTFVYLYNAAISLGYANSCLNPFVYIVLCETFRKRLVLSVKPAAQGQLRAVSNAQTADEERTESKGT

Row | Compound | A6: inhibition of radioligand binding, human melanin-concentrating hormone (MCH1) [1] | A8: inhibition of radioligand binding, human neurokinin (NK1) (Human neurokinin (NK1)) | A2: inhibition of radioligand binding, human κ-opioid (KOP) (Human κ-Opioid (KOP)) | A11: inhibition of radioligand binding, mouse urotensin (mUR2) (Mouse urotensin (mUR2)) | A4: inhibition of radioligand binding, human melanocortin (MC4) (Human Melanocortin (MC4); 10 µM) | A5: inhibition of radioligand binding, human melanocortin (MC5) (Human melanocortin (MC5)) | A3: inhibition of radioligand binding, human melanocortin (MC3) (Human Melanocortin (MC3)) | A7: inhibition of radioligand binding, human μ-opioid (MOP) (Human μ-opioid (MOP)) | A1: inhibition of radioligand binding, human δ-opioid (DOP) (Human δ-opioid (DOP)) | A9: inhibition of radioligand binding, human neuropeptide Y (NPY-Y1) [2] | A4: inhibition of radioligand binding, human melanocortin (MC4) (Human Melanocortin (MC4)) | A10: inhibition of radioligand binding, human opioid (ORL1) (Human opioid (ORL1)) | further results
1 | CSC1O[C@H](COCc2ccc3ccccc3c2)[C@@H](O)[C@@H](OCc2ccc(Cl)cc2)[C@H]1NC(=O)CCNC(=N)N (stereo partly shown) [compound 283] |  |  |  |  |  |  |  |  |  |  |  |  | A6: inhibition of radioligand binding ([1]; [125I]-S36057, FlashPlate): − (“−” indicates less than 50% inhibition at 10 μM); A8: inhibition of radioligand binding (Human neurokinin (NK1); filtration): + (“+” indicates greater than 50% inhibition at 10 μM); A2: inhibition of radioligand binding (Human κ-Opioid (KOP); filtration): − (“−” indicates less than 50% inhibition at 10 μM); A11: inhibition of radioligand binding (Mouse urotensin (mUR2); FlashPlate): − (“−” indicates less than 50% inhibition at 10 μM); A4: inhibition of radioligand binding (Human Melanocortin (MC4); FlashPlate): + (“+” indicates greater than 50% inhibition at 10 μM); A5: inhibition of radioligand binding (Human melanocortin (MC5); FlashPlate): + (“+” indicates greater than 50% inhibition at 10 μM); A3: inhibition of radioligand binding (Human Melanocortin (MC3); FlashPlate): − (“−” indicates less than 50% inhibition at 10 μM); A10: inhibition of radioligand binding (Human opioid (ORL1); FlashPlate): − (“−” indicates less than 50% inhibition at 10 μM); A7: inhibition of radioligand binding (Human μ-opioid (MOP); FlashPlate): − (“−” indicates less than 50% inhibition at 10 μM); A1: inhibition of radioligand binding (Human δ-opioid (DOP); FlashPlate): − (“−” indicates less than 50% inhibition at 10 μM); A9: inhibition of radioligand binding ([2]; FlashPlate): − (“−” indicates less than 50% inhibition at 10 μM)
2 | NCCCC(=O)NC1C(OCc2ccc(Cl)cc2)OC(COCc2ccccc2)C(O)C1OCc1ccc2ccccc2c1 (single isomer, unassigned) [compound 497] | − (“−” indicates less than 50% inhibition at 10 μM) | + (“+” indicates greater than 50% inhibition at 10 μM) | − (“−” indicates less than 50% inhibition at 10 μM) | − (“−” indicates less than 50% inhibition at 10 μM) | − (“−” indicates less than 50% inhibition at 10 μM) | + (“+” indicates greater than 50% inhibition at 10 μM) | − (“−” indicates less than 50% inhibition at 10 μM) | − (“−” indicates less than 50% inhibition at 10 μM) | − (“−” indicates less than 50% inhibition at 10 μM) | − (“−” indicates less than 50% inhibition at 10 μM) |  |  | A10: inhibition of radioligand binding, human opioid (ORL1) (Human opioid (ORL1); 10 µM): − (“−” indicates less than 50% inhibition at 10 μM)
3 | NCCC(=O)NC1C(OCc2ccc(Cl)cc2)OC(COCc2ccc(Cl)cc2)C(O)C1OCc1ccc2ccccc2c1 (single isomer, unassigned) [compound 482] | + (“+” indicates greater than 50% inhibition at 10 μM) | + (“+” indicates greater than 50% inhibition at 10 μM) |  | − (“−” indicates less than 50% inhibition at 10 μM) |  | + (“+” indicates greater than 50% inhibition at 10 μM) | + (“+” indicates greater than 50% inhibition at 10 μM) | − (“−” indicates less than 50% inhibition at 10 μM) | − (“−” indicates less than 50% inhibition at 10 μM) | − (“−” indicates less than 50% inhibition at 10 μM) | + (“+” indicates greater than 50% inhibition at 10 μM) | + (“+” indicates greater than 50% inhibition at 10 μM) | A2: inhibition of radioligand binding, human κ-opioid (KOP) (Human κ-Opioid (KOP); 10 µM): − (“−” indicates less than 50% inhibition at 10 μM)
4 | NCCC(=O)NC1C(OCc2ccc(Cl)cc2)OC(COCc2ccccc2)C(O)C1OCc1ccc2ccccc2c1 (single isomer, unassigned) [compound 479] |  | + (“+” indicates greater than 50% inhibition at 10 μM) | − (“−” indicates less than 50% inhibition at 10 μM) | − (“−” indicates less than 50% inhibition at 10 μM) | − (“−” indicates less than 50% inhibition at 10 μM) |  | − (“−” indicates less than 50% inhibition at 10 μM) |  | − (“−” indicates less than 50% inhibition at 10 μM) | − (“−” indicates less than 50% inhibition at 10 μM) |  | − (“−” indicates less than 50% inhibition at 10 μM) | A6: inhibition of radioligand binding, human melanin-concentrating hormone (MCH1) ([1]; 10 µM): − (“−” indicates less than 50% inhibition at 10 μM); A5: inhibition of radioligand binding, human melanocortin (MC5) (Human melanocortin (MC5); 10 µM): − (“−” indicates less than 50% inhibition at 10 μM); A7: inhibition of radioligand binding, human μ-opioid (MOP) (Human μ-opioid (MOP); 10 µM): − (“−” indicates less than 50% inhibition at 10 μM)
5 | CO[C@H]1[C@H](O)[C@@H](COCc2ccc3ccccc3c2)OC(OCc2ccc(Cl)cc2)[C@@H]1NC(=O)C1CCCN(C(=N)N)C1 (stereo partly shown) [compound 353] | − (“−” indicates less than 50% inhibition at 10 μM) | + (“+” indicates greater than 50% inhibition at 10 μM) | − (“−” indicates less than 50% inhibition at 10 μM) | − (“−” indicates less than 50% inhibition at 10 μM) |  | − (“−” indicates less than 50% inhibition at 10 μM) | − (“−” indicates less than 50% inhibition at 10 μM) | − (“−” indicates less than 50% inhibition at 10 μM) | − (“−” indicates less than 50% inhibition at 10 μM) | − (“−” indicates less than 50% inhibition at 10 μM) | − (“−” indicates less than 50% inhibition at 10 μM) | − (“−” indicates less than 50% inhibition at 10 μM) | 
